Assay results: US20170275275A1, “BENZENESULFONAMIDES USEFUL AS SODIUM CHANNEL INHIBITORS” (PFIZER INC., priority 2014, published 2017)
Where a name gives a salt, the structure may show the parent alone.

Tests used:
[1] = biological target: T1, Nav1.7 (or SCN9A) channel (Homo sapiens, UniProt Q15858); assay: Nav1.7 (hSCN9A) channel block, PatchXpress (PX) whole-cell electrophysiology in stably transfected HEK cells; type: cell-based; settings: estimated IC50 from single point electrophysiology data; PatchXpress platform; HEK cells expressing hSCN9A; clamped at V1/2 of inactivation; read-out: Nav1.7 EIC50
T1 construct: expressed in transfected cells
T1 sequence (Q15858 whole entry): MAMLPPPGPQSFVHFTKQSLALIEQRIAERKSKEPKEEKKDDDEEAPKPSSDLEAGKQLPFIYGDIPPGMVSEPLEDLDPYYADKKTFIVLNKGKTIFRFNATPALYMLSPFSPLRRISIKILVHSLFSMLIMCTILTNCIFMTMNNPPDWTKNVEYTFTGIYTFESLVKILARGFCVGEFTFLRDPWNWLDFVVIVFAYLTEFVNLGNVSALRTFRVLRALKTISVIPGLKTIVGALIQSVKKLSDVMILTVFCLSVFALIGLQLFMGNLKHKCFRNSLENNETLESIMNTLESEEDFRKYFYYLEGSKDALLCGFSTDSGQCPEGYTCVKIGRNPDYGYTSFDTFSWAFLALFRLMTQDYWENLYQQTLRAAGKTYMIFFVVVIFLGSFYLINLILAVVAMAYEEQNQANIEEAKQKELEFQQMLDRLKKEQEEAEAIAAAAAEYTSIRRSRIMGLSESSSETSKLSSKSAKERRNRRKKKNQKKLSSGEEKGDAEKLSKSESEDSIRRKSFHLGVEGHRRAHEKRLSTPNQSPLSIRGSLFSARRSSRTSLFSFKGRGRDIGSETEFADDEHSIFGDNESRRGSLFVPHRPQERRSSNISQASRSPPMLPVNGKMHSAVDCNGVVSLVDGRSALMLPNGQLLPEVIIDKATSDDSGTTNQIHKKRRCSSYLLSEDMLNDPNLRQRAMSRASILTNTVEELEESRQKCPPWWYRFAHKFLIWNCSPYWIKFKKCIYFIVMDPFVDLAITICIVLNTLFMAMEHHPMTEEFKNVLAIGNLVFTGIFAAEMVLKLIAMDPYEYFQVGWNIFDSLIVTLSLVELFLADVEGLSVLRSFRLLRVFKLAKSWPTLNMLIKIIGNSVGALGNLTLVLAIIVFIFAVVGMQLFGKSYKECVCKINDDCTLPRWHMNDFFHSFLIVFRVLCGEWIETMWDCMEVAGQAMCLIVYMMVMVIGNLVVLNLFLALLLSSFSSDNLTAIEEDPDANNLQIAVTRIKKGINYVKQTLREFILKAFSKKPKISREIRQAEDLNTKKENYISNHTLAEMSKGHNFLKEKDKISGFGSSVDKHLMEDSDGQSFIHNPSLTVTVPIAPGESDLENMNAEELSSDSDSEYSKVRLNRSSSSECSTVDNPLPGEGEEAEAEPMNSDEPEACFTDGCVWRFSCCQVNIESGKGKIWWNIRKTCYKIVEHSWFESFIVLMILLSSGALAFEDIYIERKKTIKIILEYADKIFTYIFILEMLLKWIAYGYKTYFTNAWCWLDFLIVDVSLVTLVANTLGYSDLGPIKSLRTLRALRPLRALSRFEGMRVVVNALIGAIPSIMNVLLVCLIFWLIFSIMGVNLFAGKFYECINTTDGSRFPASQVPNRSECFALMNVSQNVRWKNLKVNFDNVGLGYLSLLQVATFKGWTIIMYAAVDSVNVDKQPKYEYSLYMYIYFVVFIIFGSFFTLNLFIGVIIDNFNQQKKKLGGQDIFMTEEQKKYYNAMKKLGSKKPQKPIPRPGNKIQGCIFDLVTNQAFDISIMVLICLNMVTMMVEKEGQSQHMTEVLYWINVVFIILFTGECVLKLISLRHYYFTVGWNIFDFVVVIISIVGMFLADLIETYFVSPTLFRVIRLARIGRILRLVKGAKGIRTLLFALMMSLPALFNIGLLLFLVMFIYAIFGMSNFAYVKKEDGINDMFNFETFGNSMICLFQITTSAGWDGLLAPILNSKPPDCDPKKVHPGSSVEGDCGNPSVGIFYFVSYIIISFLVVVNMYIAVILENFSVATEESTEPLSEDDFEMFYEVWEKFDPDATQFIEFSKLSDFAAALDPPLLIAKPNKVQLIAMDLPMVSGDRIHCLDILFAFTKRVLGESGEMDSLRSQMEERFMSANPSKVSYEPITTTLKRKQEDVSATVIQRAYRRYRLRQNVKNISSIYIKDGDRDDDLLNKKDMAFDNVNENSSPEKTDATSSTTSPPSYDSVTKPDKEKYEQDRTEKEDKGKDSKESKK
Protocol: The ability of the compounds of formula (I) to block the Nav1.7 (or SCN9A) channel was measured using the assay described below.
Human Embryonic Kidney (HEK) cells were transfected with an hSCN9A construct using lipofectamine reagent (Invitrogen), using standard techniques. Cells stably expressing the hSCN9A constructs were identified by their resistance to G-418 (400 μg/ml). Clones were screened for expression using the whole-cell voltage-clamp technique.
HEK cells stably transfected with hSCN9A were maintained in DMEM medium supplemented with 10% heat-inactivated fetal bovine serum and 400 μg/ml G-418 in an incubator at 37° C. with a humidified atmosphere of 10% CO2. For HTS, cells were harvested from flasks by trypsinization and replated in an appropriate multi-well plate (typically 96 or 384 wells/plate) such that confluence would be achieved within 24 hours of plating. Cells were typically used for electrophysiological experiments within 24 to 72 hours after plating.
For conventional whole-cell voltage clamp experiments cells were removed from the culture flask by brief trypsinization and re-plated at low density onto glass cover slips. Cover slips containing HEK cells expressing hSCN9A were placed in a bath on the stage of an inverted microscope and perfused (approximately 1 ml/minutes) with extracellular solution of the following composition: 138 mM NaCl, 2 mM CaCl2, 5.4 mM KCl, 1 mM MgCl2, 10 mM glucose, and 10 mM HEPES, pH 7.4, with NaOH. […] The osmolarity of the extracellular and intracellular solutions was 300 mOsm/kg and 295 mOsm/kg, respectively. All recordings were made at room temperature (22-24° C.) using AXOPATCH 200B amplifiers and PCLAMP software (Axon Instruments, Burlingame, Calif.). hSCN9A currents in HEK cells were measured using the whole-cell configuration of the patch-clamp technique (Hamill et al., 1981). Uncompensated series resistance was typically 2 to 5 mega ohms and >85% series resistance compensation was routinely achieved. […] Current records were acquired at 20 to 50 KHz and filtered at 5 to 10 KHz.
HEK cells stably transfected with hSCN9A were viewed under Hoffman contrast optics and placed in front of an array of flow pipes emitting either control or compound-containing extracellular solutions.
The voltage-dependence of inactivation was determined by applying a series of depolarizing prepulses (8 sec long in 10 mV increments) from a negative holding potential. The voltage was then immediately stepped to 0 mV to assess the magnitude of the sodium current. Currents elicited at 0 mV were plotted as a function of prepulse potential to allow estimation of the voltage at which 50% of the channels were inactivated (midpoint of inactivation or V1/2). Compounds were tested for their ability to inhibit hSCN9A sodium channels by activating the channel with a 20 msec voltage step […] to 0 mV following an 8 second conditioning prepulse to the empirically determined V1/2. Compound effect (% inhibition) was determined by difference in current amplitude before and after application of test compounds. For ease of comparison, “estimated IC-50” (EIC50) values were calculated from single point electrophysiology data by the following equation, (tested concentration, nM)×(100-% inhibition/% inhibition). Inhibition values <20% and >80% were excluded from the calculation.
Electrophysiological assays were conducted with PatchXpress 7000 hardware and associated software (Molecular Devices Corp). All assay buffers and solutions were identical to those used in conventional whole-cell voltage clamp experiments described above. hSCN9A cells were grown as above to 50%-80% confluency and harvested by trypsinization. Trypsinized cells were washed and resuspended in extracellular buffer at a concentration of 1×10^6 cells/ml. The onboard liquid handling facility of the PatchXpress was used for dispensing cells and application of test compounds.

[2] = Aqueous solubility, shake-flask method; type: physicochemical; settings: aqueous buffer, thermodynamic from solid, pH 7.2, shaken 18 hours at room temperature
Protocol: Aqueous solubility data were generated via a “shake-flask” method where an excess of compound was added to a buffer (typically phosphate buffered saline at pH 7.4) and shaken for a period of 18 hours at room temperature. After this time any excess solid was removed by double centrifugation to obtain a saturated aqueous solution. The amount of compound solubilised was quantified by HPLC-UV or LC-MS against a standard calibration curve.
The solubility data generated are set out below. Where a greater than figure is quoted, all available compound was solubilised and saturation was not achieved in the conditions employed.

IC50 [1]: 1.5 nM
solubility at 18 h [2]: 0.5 µg/mL
SMILES: NCc1cc(-c2cc(-c3cccc(C(F)(F)F)c3)ccc2Oc2cc(F)c(S(=O)(=O)Nc3nncs3)cc2Cl)ccn1 [Example 7, 4-({3-[2-(Aminomethyl)pyridin-4-yl]-3′-(trifluoromethyl)biphenyl-4-yl}oxy)-5-chloro-2-fluoro-N-1,3,4-thiadiazol-2-ylbenzenesulfonamide bis-formate salt]
